Each block holds one compound with its values, some of them ahead of it.
Test system: 885512-296-R-J2-PDC complex spheroid growth, % test/control
Experiment: Anticancer human tumor 885512-296-R-J2-PDC patient-derived breast carcinoma cell line growth inhibition [Asc]
Conditions: for IC50: curve of first compound; for viability, T/C: stronger effect = lower value
Procedure: Multicellular complex tumor spheroid response to apoptosis pathway targeting inhibitors Alrizomadlin, Pelcitoclax, and Dasminapant in combination with a variety of drugs and investigational agents in selected tumor cell lines
The MDM2 inhibitor alrizomadlin, the Bcl-2/Bcl-xL inhibitor pelcitoclax, and the IAPs inhibitor dasminapant were evaluated both individually and in combination with standard of care and investigational anticancer small molecules within a complex spheroid model of solid tumors. . Complex spheroids include a stromal component modeled by human endothelial cells (HUVEC) and fibroblasts modeled by human mesenchymal stem cells (MSCs). The concentration ranges selected for each drug and investigational agent were based upon clinically achievable concentrations if the clinical Cmax of the agent was known.
Compounds. The drugs and investigational agents: alrizomadlin (APG-115; NSC831270), pelcitoclax (APG-1252; NSC835773), dasminapant (APG-1387;NSC834197), TAK-243 (NSC785004), copanlisib (NSC809693), olaparib (NSC753686), talazoparib (NSC767125), cobimetinib (NSC 768068), eltanexor (KPT-8602, NSC 794443), abemaciclib (NSC 768073), sotorasib (NSC818433), adagrasib (NSC 831453), MRTX-1133 (NSC 836407), Iadademestat (ORY1001, NSC 806812), and RMC-4630 (NSC839698), were obtained from the NCI Developmental Therapeutics Program Chemical Repository. The FDA-approved anticancer drug set is available from the Developmental Therapeutics Program at https://dtp.cancer.gov/organization/dscb/obtaining/available plates.htm. […] The stock solutions were prepared in dimethyl sulfoxide (DMSO, Sigma-Aldrich, St. Louis, MO, cat. D2650) at 800-fold the tested concentration and stored at -70 degrees C prior to their use. All drugs and investigational agents were tested over a range starting from a high concentration at or near the clinical Cmax and decreasing in half-log increments. If the clinical Cmax for an agent had not been determined, the highest concentration tested was 10 microM.
The patient-derived cancer (PDC) cell lines include five colon adenocarcinomas: 186277-243-T-J2-PDC, 616215-338-R-J1-PDC, 439559-082-T-J2-PDC, 463943-066-T-J2-PDC, and 519858-162-T-J1-PDC; three pancreatic carcinomas: 323965-272-R-J2-PDC, 521955-158-R6-J3-PDC, and 521955-158-R2-J5-PDC; two uterine sarcomas: 327498-152-R-J2-PDC and 993429-296-R-J1-PDC; two rhabdomyosarcomas: 755483-174-R-J1-PDC and 772245-204-R-J1-PDC; two soft tissue sarcomas: 126254-015-R-J1-PDC and 494315-158-R-J1-PDC; two malignant fibrous histiocytomas: 317291-083-R-J1-PDC and 596521-263-R-J1-PDC; two breast carcinomas: 171881-019-R-J1-PDC and 885512-296-R-J2-PDC; and one ovarian carcinoma: 6556581-035-R-J-PDC were obtained from the NCI PDMR, (https://pdmr.cancer.gov). The established cell lines HSSY-2 synovial sarcoma (RRID:CVCL 8719), SYO-1 synovial sarcoma (RRID:CVCL_7146), MPNST malignant peripheral neural sheath tumor were obtained from the Sloan Kettering Institute. The following established cell lines were purchased from the American Type Culture Collection (ATCC, Manassas, VA), Sor the received from the NCI repository:, PANC-1 pancreatic carcinoma (CRL-1469, RRID:CVCL_0480), OVCAR-5 ovarian carcinoma (RRID:CVCL_1628), OVCAR-8 ovarian carcinoma (RRID:CVCL_1629), , MCF-7 breast carcinoma (CRL-12584, RRID:CVCL_0031), MDA-MB-231 breast carcinoma (CRL-12532, RRID:CVCL_0062), NCI-H1876 small cell lung carcinoma (CRL-5902, RRID:CVCL_1503), NCI-H510A small cell lung carcinoma (HTB-184, RRID:CVCL_1565), NCI-H1417 (CRL-5869, RRID:CVCL_1469), and NCI-H196 small cell lung carcinoma (CRL-5823, RRID:CVCL_1509). Dr. Peter Houghton (Greehey Children's Cancer Research Institute, University of Texas Health Science Center, San Antonio, TX) provided Rh-18 rhabdomyosarcoma (RRID:CVCL_1659). Pooled donor human umbilical vein endothelial cells (HUVEC, Lonza, cat. CC-2519) and human mesenchymal stem cells (hMSC, Lonza, cat. PT-2501) were purchased from Lonza (Walkersville, MD).
Cell Culture. […]
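Note: spheroids exposed to compounds for seven days.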
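Throughout, for viability, T/C: 100% = DMSO vehicle control wells.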

IC50 (second compound 0.03 µM): > 100 nM | IC50 (second compound 0.0949 µM): > 100 nM | IC50 (second compound 0.3 µM): > 100 nM | IC50 (second compound 0.949 µM): > 100 nM | IC50 (second compound 3 µM): > 100 nM
Compound: NC1CCC(NC2CC2c2ccccc2)CC1 (stereo not given) + CCN1C(C(=O)NC23CCC(C(=O)O)(CC2)CC3)C(c2cccc(Cl)c2F)C2(C(=O)Nc3cc(Cl)ccc32)C12CCCCC2
viability, T/C (second compound 0.03 µM, first compound 0.000316 µM): 116% | viability, T/C (second compound 0.03 µM, first compound 0.001 µM): 129% | viability, T/C (second compound 0.03 µM, first compound 0.00316 µM): 120% | viability, T/C (second compound 0.03 µM, first compound 0.01 µM): 123% | viability, T/C (second compound 0.03 µM, first compound 0.0316 µM): 125% | viability, T/C (second compound 0.03 µM, first compound 0.1 µM): 118% | viability, T/C (second compound 0.0949 µM, first compound 0.000316 µM): 117% | viability, T/C (second compound 0.0949 µM, first compound 0.001 µM): 123% | viability, T/C (second compound 0.0949 µM, first compound 0.00316 µM): 127% | viability, T/C (second compound 0.0949 µM, first compound 0.01 µM): 114% | viability, T/C (second compound 0.0949 µM, first compound 0.0316 µM): 124% | viability, T/C (second compound 0.0949 µM, first compound 0.1 µM): 119% | viability, T/C (second compound 0.3 µM, first compound 0.000316 µM): 108% | viability, T/C (second compound 0.3 µM, first compound 0.001 µM): 116% | viability, T/C (second compound 0.3 µM, first compound 0.00316 µM): 118% | viability, T/C (second compound 0.3 µM, first compound 0.01 µM): 108% | viability, T/C (second compound 0.3 µM, first compound 0.0316 µM): 118% | viability, T/C (second compound 0.3 µM, first compound 0.1 µM): 118% | viability, T/C (second compound 0.949 µM, first compound 0.000316 µM): 99.8% | viability, T/C (second compound 0.949 µM, first compound 0.001 µM): 102% | viability, T/C (second compound 0.949 µM, first compound 0.00316 µM): 104% | viability, T/C (second compound 0.949 µM, first compound 0.01 µM): 99.7% | viability, T/C (second compound 0.949 µM, first compound 0.0316 µM): 103% | viability, T/C (second compound 0.949 µM, first compound 0.1 µM): 104% | viability, T/C (second compound 3 µM, first compound 0.000316 µM): 66.5% | viability, T/C (second compound 3 µM, first compound 0.001 µM): 62.2% | viability, T/C (second compound 3 µM, first compound 0.00316 µM): 62.2% | viability, T/C (second compound 3 µM, first compound 0.01 µM): 70.7% | viability, T/C (second compound 3 µM, first compound 0.0316 µM): 71.4% | viability, T/C (second compound 3 µM, first compound 0.1 µM): 74.8%

IC50 (second compound 0.1 µM): > 1000 nM | IC50 (second compound 0.316 µM): > 1000 nM | IC50 (second compound 1 µM): > 1000 nM | IC50 (second compound 3.16 µM): > 1000 nM | IC50 (second compound 10 µM): > 1000 nM
Compound: CCN1CCN(Cc2ccc(Nc3ncc(F)c(-c4cc(F)c5nc(C)n(C(C)C)c5c4)n3)nc2)CC1 + Cc1c(S(C)(=O)=O)c(-c2cc(F)cc(N3CCN(c4ccc(NS(=O)(=O)c5ccc(NC(CCN6CCC(C(=O)OCCCP(=O)(O)O)CC6)CSc6ccccc6)c(S(=O)(=O)C(F)(F)F)c5)cc4)CC3)c2)c(-c2ccc(Cl)cc2)n1C(C)C
viability, T/C (second compound 0.1 µM, first compound 0.00316 µM): 85.9% | viability, T/C (second compound 0.1 µM, first compound 0.01 µM): 104% | viability, T/C (second compound 0.1 µM, first compound 0.0316 µM): 89.3% | viability, T/C (second compound 0.1 µM, first compound 0.1 µM): 71.7% | viability, T/C (second compound 0.1 µM, first compound 0.316 µM): 65.5% | viability, T/C (second compound 0.1 µM, first compound 1 µM): 61% | viability, T/C (second compound 0.316 µM, first compound 0.00316 µM): 102% | viability, T/C (second compound 0.316 µM, first compound 0.01 µM): 89.9% | viability, T/C (second compound 0.316 µM, first compound 0.0316 µM): 83.3% | viability, T/C (second compound 0.316 µM, first compound 0.1 µM): 68.3% | viability, T/C (second compound 0.316 µM, first compound 0.316 µM): 66.1% | viability, T/C (second compound 0.316 µM, first compound 1 µM): 65% | viability, T/C (second compound 1 µM, first compound 0.00316 µM): 92.6% | viability, T/C (second compound 1 µM, first compound 0.01 µM): 91.5% | viability, T/C (second compound 1 µM, first compound 0.0316 µM): 76% | viability, T/C (second compound 1 µM, first compound 0.1 µM): 76.3% | viability, T/C (second compound 1 µM, first compound 0.316 µM): 67.8% | viability, T/C (second compound 1 µM, first compound 1 µM): 69.1% | viability, T/C (second compound 3.16 µM, first compound 0.00316 µM): 90.8% | viability, T/C (second compound 3.16 µM, first compound 0.01 µM): 83.5% | viability, T/C (second compound 3.16 µM, first compound 0.0316 µM): 92.6% | viability, T/C (second compound 3.16 µM, first compound 0.1 µM): 89% | viability, T/C (second compound 3.16 µM, first compound 0.316 µM): 72.5% | viability, T/C (second compound 3.16 µM, first compound 1 µM): 61.9% | viability, T/C (second compound 10 µM, first compound 0.00316 µM): 118% | viability, T/C (second compound 10 µM, first compound 0.01 µM): 116% | viability, T/C (second compound 10 µM, first compound 0.0316 µM): 108% | viability, T/C (second compound 10 µM, first compound 0.1 µM): 126% | viability, T/C (second compound 10 µM, first compound 0.316 µM): 125% | viability, T/C (second compound 10 µM, first compound 1 µM): 113%

— PubChem BioAssay AID1963447 (Molecular Pharmacology Branch, DTP, NCI, 2024)
